Experimental data published in publication PMC7854658, “Structural basis for ligand recognition of the neuropeptide Y Y2 receptor” (Nature Communications, 2021).
Changes are numbered by the printed parent chain. Values joined by “and” are separate entries in the source; they are usually repeats but may differ in a detail not shown here. Identical values can stand only once.

What was measured:
[1] = molecular target: T1, Y2R mutant F307^7.35A (Homo sapiens, UniProt P49146, F307A); experiment: NPY-induced IP accumulation (IP-One), mutant; type: cell-based
T1 construct: expressed in transfected cells; host or cells: HEK293
T1 sequence (P49146 1-381 F307A): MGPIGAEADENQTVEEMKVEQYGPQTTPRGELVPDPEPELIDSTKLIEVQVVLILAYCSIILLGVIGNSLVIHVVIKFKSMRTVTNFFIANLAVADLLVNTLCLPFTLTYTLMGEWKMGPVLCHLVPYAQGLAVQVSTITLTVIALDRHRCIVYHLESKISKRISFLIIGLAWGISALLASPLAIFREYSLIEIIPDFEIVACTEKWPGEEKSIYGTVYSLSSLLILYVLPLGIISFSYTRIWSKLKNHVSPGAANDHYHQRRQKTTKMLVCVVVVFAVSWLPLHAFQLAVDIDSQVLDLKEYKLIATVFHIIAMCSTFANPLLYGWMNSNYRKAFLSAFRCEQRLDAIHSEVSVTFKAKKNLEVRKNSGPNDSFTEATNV

[2] = molecular target: T2, Y2R mutant Q288^6.55A (Homo sapiens, UniProt P49146, Q288A); experiment: NPY-induced IP accumulation (IP-One), mutant; type: cell-based
T2 construct: expressed in transfected cells; host or cells: HEK293
T2 sequence (P49146 1-381 Q288A): T1 sequence (P49146 1-381 F307A) with Q288A, A307F

[3] = molecular target: T3, Y2R mutant S223^5.42A (Homo sapiens, UniProt P49146, S223A); experiment: NPY-induced IP accumulation (IP-One), mutant; type: cell-based; settings: 1 μM antagonist, source data Fig. 3
T3 construct: expressed in transfected cells; host or cells: HEK293
T3 sequence (P49146 whole entry S223A): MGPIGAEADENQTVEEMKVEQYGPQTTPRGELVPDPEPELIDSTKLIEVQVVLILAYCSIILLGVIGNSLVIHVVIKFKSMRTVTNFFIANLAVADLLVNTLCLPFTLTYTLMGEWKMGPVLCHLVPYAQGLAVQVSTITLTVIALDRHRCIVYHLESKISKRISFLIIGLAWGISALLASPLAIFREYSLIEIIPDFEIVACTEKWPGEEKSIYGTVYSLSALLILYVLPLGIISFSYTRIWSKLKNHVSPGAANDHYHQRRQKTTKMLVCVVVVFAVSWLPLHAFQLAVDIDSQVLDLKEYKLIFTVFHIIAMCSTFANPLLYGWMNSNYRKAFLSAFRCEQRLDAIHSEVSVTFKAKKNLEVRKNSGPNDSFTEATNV

[4] = molecular target: T4, Y2R mutant T111^2.65A (Homo sapiens, UniProt P49146, T111A); experiment: NPY-induced IP accumulation (IP-One), mutant; type: cell-based
T4 construct: expressed in transfected cells; host or cells: HEK293
T4 sequence (P49146 1-381 T111A): T1 sequence (P49146 1-381 F307A) with T111A, A307F

[5] = molecular target: T5, Y2R mutant T308^7.36A (Homo sapiens, UniProt P49146, T308A); experiment: NPY-induced IP accumulation (IP-One), mutant; type: cell-based
T5 construct: expressed in transfected cells; host or cells: HEK293
T5 sequence (P49146 1-381 T308A): T1 sequence (P49146 1-381 F307A) with A307F, T308A

[6] = molecular target: T6, Y2R mutant W116^ECL1A (Homo sapiens, UniProt P49146, W116A); experiment: NPY-induced IP accumulation (IP-One), mutant; type: cell-based; settings: 1 μM antagonist, source data Fig. 3
T6 construct: expressed in transfected cells; host or cells: HEK293
T6 sequence (P49146 whole entry W116A): as the sequence (P49146 whole entry S223A) above, with W116A, A223S counted along it

[7] = molecular target: T7, Y2R mutant Y110^2.64A (Homo sapiens, UniProt P49146, Y110A); experiment: NPY-induced IP accumulation (IP-One), mutant; type: cell-based; settings: 1 μM antagonist, source data Fig. 3
T7 construct: expressed in transfected cells; host or cells: HEK293
T7 sequence (P49146 whole entry Y110A): as the sequence (P49146 whole entry S223A) above, with Y110A, A223S counted along it

[8] = parameters: method as in Brothers, S. P. et al., Mol. Pharmacol. 77:46–57, 2010; settings: ref Brothers, S. P. et al., Mol. Pharmacol. 77:46–57, 2010; cited from earlier work
[9] = 1 μM antagonist, source data Fig. 3
[10] = EC50(NPY + 1 μM antagonist)/EC50(NPY)
[11] = EC50 ratio (WT)/EC50 ratio (mutant)

Average EC50 ratio [1, 9]: 89.4
EC50 ratio (individual experiments) [1, 9]: 68.0 and 110.9
EC50 ratio [1, 10]: 68 and 111
Ratio change (fold) [1, 11]: 2 fold and 1.4 fold
Average EC50 ratio [2, 9]: 143.2
EC50 ratio (individual experiments) [2, 9]: 101.5 and 185.0
EC50 ratio [2, 10]: 102 and 185
Ratio change (fold) [2, 11]: 1.6 fold and 0.9 fold
Average EC50 ratio [3]: 168.7
EC50 ratio (individual experiments) [3]: 275.8 and 61.6
Average EC50 ratio [4, 9]: 247.7
EC50 ratio (individual experiments) [4, 9]: 265.4 and 230.1
EC50 ratio [4, 10]: 265 and 230
Ratio change (fold) [4, 11]: 0.6 fold and 0.7 fold
Average EC50 ratio [5, 9]: 233.8
EC50 ratio (individual experiments) [5, 9]: 248.2 and 219.5
EC50 ratio [5, 10]: 248 and 219
Ratio change (fold) [5, 11]: 0.6 fold and 0.7 fold
Average EC50 ratio [6]: 38.2
EC50 ratio (individual experiments) [6]: 21.7 and 54.7
Average EC50 ratio [7]: 47.6
EC50 ratio (individual experiments) [7]: 25.1 and 70.1
SMILES: N=C(N)NCCC[C@H](NC(=O)CC1(CC(=O)N2CCN(C3c4ccccc4NC(=O)c4ccccc43)CC2)CCCC1)C(=O)NCCn1c(=O)n(-c2ccccc2)n(-c2ccccc2)c1=O (some centres unmarked) [BIIE0246]
Blood-brain-barrier permeability [8]: poor
